In patent US12473332B2, “Modified peptides and associated methods of use” (Advanced Technologies For Novel Therapeutics, LLC, priority 2019, dated 2025):
Where no end group is shown, it is not given here.

Legend:
N2a cells = test: MTT-based proliferation assay; format: cell-based
Method: AKT affects a network that positively regulates G1/S cell cycle progression through several mechanisms that involve the expression and subcellular localization of the CDK inhibitor p27^Kip1 (Blain and Massague (2002) Nat. Med. 8:1076-1078; Liang, et al. (2002) supra; Shin, et al. (2002) supra; Viglietto, et al. (2002) supra). Based on these studies, the effect of ZaTa peptide on cell proliferation was assessed. […] Capturing live images of cultured N2a cells in the presence of different concentrations of the ZaTa peptide confirmed an obvious reduction in the number of dividing cells.
Based on the importance of the C-terminal arm of ZaTa for its inhibitory action on AKT, it was determined whether the free hydroxyl groups on residues Thr-8, Thr-10 (equivalent to Thr-197 in full-length PKAc), Thr-14 and Tyr-17 were important for the biological activity of this peptide. Mutants of ZaTa peptide were synthesized by replacing Thr-8 or Thr-10 residues with Asp (ZaTa^T8D and ZaTa^T10D, respectively) as an amino acid with a negatively charged side chain. Mutants of ZaTa with the hydrophilic positively charged amino acid Arg at either position Thr-14 or Tyr-17 (ZaTa^T14R and ZaTa^Y17R, respectively) were also synthesized. […] The inhibitory effect of ZaTa peptide on cell proliferation was reversible, to a large extent, after the removal of ZaTa treatment.

TrkB = TrkB (Homo sapiens, UniProt Q16620); test: in vitro kinase assay, selectivity; format: biochemical; design: dose or concentration left out as unconfirmed
Method: (§1) To test the specificity/selectivity of ZaTa as the inhibitor of AKT1 versus the other major kinases, a series of in vitro kinase assays was performed at IC50 for AKT1 and at ten times higher concentrations. A panel of the following 32 kinases was first tested in vitro using the active form of each kinase and a specific substrate: AKT2, AKT3, PKA, PKCα, PKCγ, PI3Kβ, PI3Kδ, PI3Kγ, SGK, PAK2, PAK3, SAPK2/p38, Abl, CaMKII, CDK1/cyclinB, CDK5/p35, CK1, CK2, CSK, GSK3α, GSK3β, JNK1α1, MAPK1, p70S6K, PDGFRα, PDGFRβ, PDK1, PKG1α, TrkB, JAK2, JAK3, and Syk. […] However, at ten times higher concentration, ZaTa inhibited AKT2 (63%), PI3Kδ (72%), p70S6K (64%), SGK (73%), PAK3 (83%), JAK3 (79%), TrkB (84%), and Abl (42%). To confirm the in vitro inhibitory effect on these kinases in cells, a cell-based assay was used to determine the effect of labeled ZaTa on the phosphorylation levels of well-known intracellular substrates for each kinase (Zipfel, et al. (2004) Curr. Biol. 14:1222-1231; Wang, et al. (2003) Arch. Biochem. Biophys. 410:7-15; King, et al. (1998) Nature 396:180-183; Rangone, et al. (2004)Eur. J. Neurosci. 19:273-279; Middlemas, et al. (1994)J. Biol. Chem. 269:5458-5466; Huang, et al. (1999) J. Biol. Chem. 274:7870-7878). The results of this cell-based kinase assay confirmed that ZaTa could inhibit p70S6K besides AKT. […] Given that most of the above-listed kinases have no known inhibitor, it is contemplated that the ZaTa could be used at micromolar concentrations in in vitro studies to inhibit the activity of the select kinases.

p70S6K [1] = molecular target: T1, p70S6K (Homo sapiens, UniProt P23443); test: in vitro kinase assay, selectivity; format: biochemical; design: dose or concentration left out as unconfirmed
T1 construct: phosphorylation levels of well-known intracellular substrates for each kinase; endogenous in cells
T1 sequence (P23443 whole entry): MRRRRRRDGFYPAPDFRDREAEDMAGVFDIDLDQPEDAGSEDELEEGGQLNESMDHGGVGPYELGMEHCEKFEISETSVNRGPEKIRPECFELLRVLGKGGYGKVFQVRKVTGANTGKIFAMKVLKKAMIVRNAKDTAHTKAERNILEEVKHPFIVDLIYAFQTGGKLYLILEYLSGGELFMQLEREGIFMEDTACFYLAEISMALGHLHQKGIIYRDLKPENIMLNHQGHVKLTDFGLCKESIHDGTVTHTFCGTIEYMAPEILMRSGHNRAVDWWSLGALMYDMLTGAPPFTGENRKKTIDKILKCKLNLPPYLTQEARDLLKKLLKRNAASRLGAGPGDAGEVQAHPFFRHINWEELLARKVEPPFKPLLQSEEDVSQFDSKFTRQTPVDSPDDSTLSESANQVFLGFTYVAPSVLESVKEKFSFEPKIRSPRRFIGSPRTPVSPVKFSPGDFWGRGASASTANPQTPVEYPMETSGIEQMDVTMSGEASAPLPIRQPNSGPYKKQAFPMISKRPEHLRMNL
Method: as §1

JAK3 = molecular target: T2, JAK3 (Homo sapiens, UniProt P52333); test: in vitro kinase assay, selectivity; format: biochemical; design: dose or concentration left out as unconfirmed
T2 construct: phosphorylation levels of well-known intracellular substrates for each kinase; endogenous in cells
T2 sequence (P52333 whole entry, species assumed): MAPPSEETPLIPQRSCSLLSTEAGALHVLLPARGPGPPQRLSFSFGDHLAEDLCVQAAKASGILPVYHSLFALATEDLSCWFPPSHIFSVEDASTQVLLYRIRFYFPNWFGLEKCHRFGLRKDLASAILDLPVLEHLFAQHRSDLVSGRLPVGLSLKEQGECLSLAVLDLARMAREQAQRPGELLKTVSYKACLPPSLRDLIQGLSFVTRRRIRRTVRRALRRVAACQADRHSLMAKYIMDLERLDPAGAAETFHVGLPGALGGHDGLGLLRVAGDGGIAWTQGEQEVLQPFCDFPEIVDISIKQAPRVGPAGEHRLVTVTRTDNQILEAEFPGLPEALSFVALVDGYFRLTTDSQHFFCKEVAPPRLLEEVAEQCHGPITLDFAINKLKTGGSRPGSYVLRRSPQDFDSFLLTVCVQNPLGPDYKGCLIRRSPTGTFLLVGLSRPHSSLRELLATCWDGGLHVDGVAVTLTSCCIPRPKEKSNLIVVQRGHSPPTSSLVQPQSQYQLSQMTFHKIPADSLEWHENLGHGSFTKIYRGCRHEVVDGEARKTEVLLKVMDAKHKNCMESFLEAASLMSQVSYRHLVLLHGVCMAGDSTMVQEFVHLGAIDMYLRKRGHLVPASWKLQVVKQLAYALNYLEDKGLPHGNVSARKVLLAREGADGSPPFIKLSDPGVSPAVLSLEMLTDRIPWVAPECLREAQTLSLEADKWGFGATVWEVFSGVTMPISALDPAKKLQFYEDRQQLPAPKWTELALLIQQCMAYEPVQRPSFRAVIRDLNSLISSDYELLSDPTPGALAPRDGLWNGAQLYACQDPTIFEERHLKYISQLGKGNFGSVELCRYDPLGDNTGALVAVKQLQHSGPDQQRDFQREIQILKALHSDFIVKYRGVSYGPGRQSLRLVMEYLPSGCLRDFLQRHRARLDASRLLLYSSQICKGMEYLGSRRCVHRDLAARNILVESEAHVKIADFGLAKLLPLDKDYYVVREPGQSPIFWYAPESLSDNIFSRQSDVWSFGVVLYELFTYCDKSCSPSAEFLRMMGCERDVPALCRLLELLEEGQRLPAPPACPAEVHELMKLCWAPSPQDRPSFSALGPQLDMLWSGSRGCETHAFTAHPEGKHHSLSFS
Method: as §1

SGK = molecular target: T3, SGK (Homo sapiens, UniProt O00141); test: in vitro kinase assay, selectivity; format: biochemical; design: dose or concentration left out as unconfirmed
T3 construct: phosphorylation levels of well-known intracellular substrates for each kinase; endogenous in cells
T3 sequence (O00141 whole entry, species assumed): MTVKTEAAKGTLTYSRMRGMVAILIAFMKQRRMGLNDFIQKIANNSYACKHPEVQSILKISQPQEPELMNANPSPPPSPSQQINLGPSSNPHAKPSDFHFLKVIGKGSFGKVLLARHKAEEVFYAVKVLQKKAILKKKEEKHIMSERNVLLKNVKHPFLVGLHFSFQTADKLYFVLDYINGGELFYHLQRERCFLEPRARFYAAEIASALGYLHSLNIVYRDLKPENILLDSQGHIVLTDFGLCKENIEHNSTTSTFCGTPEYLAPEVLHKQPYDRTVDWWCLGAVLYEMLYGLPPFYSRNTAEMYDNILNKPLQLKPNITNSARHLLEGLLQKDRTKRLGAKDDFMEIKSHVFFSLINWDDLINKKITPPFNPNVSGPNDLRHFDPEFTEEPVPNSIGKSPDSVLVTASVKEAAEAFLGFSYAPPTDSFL
Method: as §1

Abl [2] = molecular target: Abl (Homo sapiens, UniProt P00519); test: in vitro kinase assay, selectivity; format: biochemical; design: dose or concentration left out as unconfirmed
Method: as §1

PAK3 = PAK3 (Homo sapiens, UniProt O75914); test: in vitro kinase assay, selectivity; format: biochemical; design: dose or concentration left out as unconfirmed
Chain of PAK3 (O75914 whole entry, species assumed): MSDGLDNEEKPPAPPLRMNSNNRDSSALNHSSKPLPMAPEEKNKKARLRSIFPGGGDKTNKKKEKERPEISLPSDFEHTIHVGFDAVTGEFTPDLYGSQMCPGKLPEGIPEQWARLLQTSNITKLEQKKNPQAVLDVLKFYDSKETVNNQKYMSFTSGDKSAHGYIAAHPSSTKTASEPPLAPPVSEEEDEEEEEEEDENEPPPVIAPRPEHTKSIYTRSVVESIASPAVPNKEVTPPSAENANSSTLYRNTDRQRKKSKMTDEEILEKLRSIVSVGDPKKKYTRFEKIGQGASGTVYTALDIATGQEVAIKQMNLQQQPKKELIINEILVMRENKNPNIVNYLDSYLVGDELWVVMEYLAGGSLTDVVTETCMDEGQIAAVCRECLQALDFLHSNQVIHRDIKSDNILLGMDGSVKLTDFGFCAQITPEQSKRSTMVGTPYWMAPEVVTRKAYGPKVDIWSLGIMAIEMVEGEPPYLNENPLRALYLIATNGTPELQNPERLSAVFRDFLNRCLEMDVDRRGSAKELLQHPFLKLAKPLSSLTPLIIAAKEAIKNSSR
Method: as §1

AKT2 = AKT2 (Homo sapiens, UniProt P31751); test: in vitro kinase assay, selectivity; format: biochemical; design: dose or concentration left out as unconfirmed
Chain of AKT2 (P31751 whole entry, species assumed): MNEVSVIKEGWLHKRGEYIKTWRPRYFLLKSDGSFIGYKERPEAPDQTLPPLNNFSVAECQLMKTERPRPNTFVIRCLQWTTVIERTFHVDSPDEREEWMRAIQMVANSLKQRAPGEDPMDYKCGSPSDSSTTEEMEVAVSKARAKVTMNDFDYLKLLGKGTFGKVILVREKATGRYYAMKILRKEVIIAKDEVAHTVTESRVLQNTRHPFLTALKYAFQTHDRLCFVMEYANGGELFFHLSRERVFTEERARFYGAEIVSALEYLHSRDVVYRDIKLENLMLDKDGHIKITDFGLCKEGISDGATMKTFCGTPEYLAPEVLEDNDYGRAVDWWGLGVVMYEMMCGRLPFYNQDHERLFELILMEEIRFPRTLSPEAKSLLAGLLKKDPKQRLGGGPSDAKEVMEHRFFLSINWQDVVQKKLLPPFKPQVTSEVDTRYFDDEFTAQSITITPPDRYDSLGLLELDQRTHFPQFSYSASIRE
Method: as §1

PKA, PKC, CDKs = test: stereotactic injection into brain, phosphorylation of PKA, PKC and CDKs substrates; design: species or system mouse
Method: (§2) To analyze in vivo selectivity, ZaTa was injected into one hemisphere and DMSO in the other hemisphere, as above, and a series of western blot analyses was performed with phospho-specific antibodies which recognize a phosphorylated substrate or each one of the kinases that ZaTa inhibited at higher concentrations in vitro. […] Given the high functional and structural homology between p70S6K and AKT, the in vivo inhibitory effect of ZaTa on p70S6K was contemplated. Furthermore, the in vivo effect of ZaTa on the phosphorylation levels of substrates for PKA, PKC, CDKs using phospho-specific antibodies recognizing the phosphorylated consensus sites of these kinases was analyzed.
As a striatal specific substrate for PKA and CDK5, the phosphorylation level of DARPP-32 was determined at Thr-34 (the PKA site) or at Thr-75 (the CDK5 site) (Huang, et al. (1999) supra).

Abl [3] = molecular target: T4, Abl (Mus musculus, UniProt P00520); test: stereotactic injection into brain, western blot with phospho-specific antibodies; format: in vivo; conditions: vs DMSO hemisphere
T4 construct: from tissue; host or cells: brain hemisphere, in vivo
T4 sequence (P00520 whole entry): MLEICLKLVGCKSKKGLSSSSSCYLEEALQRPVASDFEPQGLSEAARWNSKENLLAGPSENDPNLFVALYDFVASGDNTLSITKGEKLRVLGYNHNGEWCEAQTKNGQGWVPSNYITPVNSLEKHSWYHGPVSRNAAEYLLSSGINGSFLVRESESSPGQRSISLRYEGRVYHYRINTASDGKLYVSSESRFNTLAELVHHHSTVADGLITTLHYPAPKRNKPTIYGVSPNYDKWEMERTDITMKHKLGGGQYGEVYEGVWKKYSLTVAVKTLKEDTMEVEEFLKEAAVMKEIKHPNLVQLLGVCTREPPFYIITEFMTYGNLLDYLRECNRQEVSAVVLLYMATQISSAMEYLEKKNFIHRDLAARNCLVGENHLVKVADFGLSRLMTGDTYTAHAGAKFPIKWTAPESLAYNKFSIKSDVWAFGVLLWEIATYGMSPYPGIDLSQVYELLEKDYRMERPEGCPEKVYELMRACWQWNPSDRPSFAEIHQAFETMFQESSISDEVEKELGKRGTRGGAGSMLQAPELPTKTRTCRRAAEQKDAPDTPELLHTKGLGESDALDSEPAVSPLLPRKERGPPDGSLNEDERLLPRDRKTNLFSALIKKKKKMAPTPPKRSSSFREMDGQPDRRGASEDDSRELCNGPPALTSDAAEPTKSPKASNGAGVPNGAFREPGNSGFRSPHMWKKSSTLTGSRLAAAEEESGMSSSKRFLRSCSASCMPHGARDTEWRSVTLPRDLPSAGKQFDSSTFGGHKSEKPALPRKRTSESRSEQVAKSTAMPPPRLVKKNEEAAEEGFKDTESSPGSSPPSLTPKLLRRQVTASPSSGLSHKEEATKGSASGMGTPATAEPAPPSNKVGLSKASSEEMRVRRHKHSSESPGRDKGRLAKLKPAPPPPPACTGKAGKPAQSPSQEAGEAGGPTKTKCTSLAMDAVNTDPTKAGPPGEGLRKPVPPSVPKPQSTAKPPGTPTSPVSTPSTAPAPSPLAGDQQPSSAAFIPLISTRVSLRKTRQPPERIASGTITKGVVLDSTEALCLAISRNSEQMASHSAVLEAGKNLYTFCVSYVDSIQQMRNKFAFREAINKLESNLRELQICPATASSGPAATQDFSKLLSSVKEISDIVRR
Method: as §2

p70S6K [4] = molecular target: T5, p70S6K (Mus musculus, UniProt Q8BSK8); test: as above; format: in vivo; conditions: vs DMSO hemisphere
T5 construct: from tissue; host or cells: brain hemisphere, in vivo
T5 sequence (Q8BSK8 whole entry): as the sequence (P23443 whole entry) above, with P12L, D18H, M488V counted along it
Method: as §2

Sequence: AKRVKGRTWTLCGTPEY [Peptide 53, A-K-R-V-K-G-R-T-W-T-L-C-G-T-P-E-Y]
- number of live cells after removal of treatment (reversibility) (N2a cells; 24 hours after removal of 10 μM, vs DMSO vehicle): no significant differences in the number of live cells
- number of live cells (N2a cells; MTT): dose-dependent decrease in the number of live cells
- dose causing a significant decrease in the number of live cells (N2a cells; doses as low as): 2 µM
- inhibition (TrkB): 84%
- inhibition (p70S6K [1]): 64%
- inhibition (JAK3): 79%
- inhibition (SGK): 73%
- inhibition (Abl [2]): 42%
- inhibition (PAK3): 83%
- inhibition (AKT2): 63%
- phosphorylation level of PKA, PKC and CDKs substrates in vivo (PKA, PKC, CDKs): significant changes in the phosphorylation level of PKA, PKC and CDKs substrates was not observed
- in vivo inhibition of Abl (Abl [3]): weaker in vivo inhibition
- in vivo inhibition of p70S6K (p70S6K [4]): potent in vivo inhibition
